Source: ChEMBL document CHEMBL1201862, “PubChem BioAssay data set” (2004)
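Assay format: 96-well plates, 48-hour exposure. At the GI50, growth is halved.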 Calls of active or inactive are those of the source. No stated cut-off is given here; in the data, active = GI50 up to about 1.1 µM and inactive = higher.

Experiments:
Test in all cases: NCI-60 cell line screen, 48 h
HL-60 = tested on: HL-60
SF-268 = tested on: SF-268
NCI/ADR-RES = tested on: NCI/ADR-RES
HOP-92 = tested on: HOP-92
OVCAR-5 = tested on: OVCAR-5
SN12C = tested on: SN12C
786-0 = tested on: 786-0
EKVX = tested on: EKVX
Hs-578T = tested on: Hs-578T
HOP-62 = tested on: HOP-62
NCI-H226 = tested on: NCI-H226
A549 = tested on: A549
RXF 393 = tested on: RXF 393
SK-OV-3 = tested on: SK-OV-3
CCRF-CEM = tested on: CCRF-CEM
HCC 2998 = tested on: HCC 2998
OVCAR-3 = tested on: OVCAR-3
NCI-H522 = tested on: NCI-H522
MDA-N = tested on: MDA-N
ACHN = tested on: ACHN

| SMILES | GI50 (HL-60) | GI50 (SF-268) | GI50 (NCI/ADR-RES) | GI50 (HOP-92) | GI50 (OVCAR-5) | GI50 (SN12C) | GI50 (786-0) | GI50 (EKVX) | GI50 (Hs-578T) | GI50 (HOP-62) | GI50 (NCI-H226) | GI50 (A549) | GI50 (RXF 393) | GI50 (SK-OV-3) | GI50 (CCRF-CEM) | GI50 (HCC 2998) | GI50 (OVCAR-3) | GI50 (NCI-H522) | GI50 (MDA-N) | GI50 (ACHN) |
| --- | --- | --- | --- | --- | --- | --- | --- | --- | --- | --- | --- | --- | --- | --- | --- | --- | --- | --- | --- | --- |
| Cc1cc(Cc2cc(Cc3cc(C)cc(C(C)(C)C)c3O)c(C)cc2C)c(O)c(C(C)(C)C)c1 | 20.9 µM (inactive) | 15.9 µM (inactive) | 17.9 µM (inactive) | 13.2 µM (inactive) | 19.6 µM (inactive) | 16.6 µM (inactive) | 17.1 µM (inactive) | 16.6 µM (inactive) | 17.5 µM (inactive) | 17.5 µM (inactive) | 14.8 µM (inactive) | 15.4 µM (inactive) | 12 µM (inactive) | 16.7 µM (inactive) | 16 µM (inactive) | 13.5 µM (inactive) | 16.4 µM (inactive) | 14.3 µM (inactive) | 18.6 µM (inactive) | 16.1 µM (inactive) |
| c1cc2nnc1SCCCSc1ccc(nn1)SCCCS2 | > 19.9 µM (inactive) | 22.2 µM (inactive) | > 20.5 µM (inactive) | 38.4 µM (inactive) | 31.3 µM (inactive) | > 35.8 µM (inactive) | 24.2 µM (inactive) | > 100 µM (inactive) | 26.5 µM (inactive) | 16 µM (inactive) | 24.7 µM (inactive) | 41.6 µM (inactive) | 12.9 µM (inactive) | 24.7 µM (inactive) | > 21.2 µM (inactive) | > 37.8 µM (inactive) | > 43.2 µM (inactive) | > 100 µM (inactive) | > 29.9 µM (inactive) | > 43.7 µM (inactive) |
| CC(Oc1ccccc1Cl)C(=O)NN1C(=O)CSC1c1ccc(Cl)cc1 (stereo not given) | 7.64 µM (inactive) | 20.6 µM (inactive) | 23.9 µM (inactive) | 20 µM (inactive) | 22.8 µM (inactive) | 14.8 µM (inactive) | 15.2 µM (inactive) | 26.8 µM (inactive) | 20.4 µM (inactive) | 17.4 µM (inactive) | 18.2 µM (inactive) | 18.5 µM (inactive) | 17.3 µM (inactive) | 18.8 µM (inactive) | 0.17 µM (active) | 18.4 µM (inactive) | 23.3 µM (inactive) | 16 µM (inactive) | 15.2 µM (inactive) | 27.2 µM (inactive) |
| O=CN1CCC23CC(O)CCC2C1Cc1cc(Oc2nnnn2-c2ccccc2)cc(O)c13 (stereo not given) | 52.1 µM (inactive) | > 100 µM (inactive) | > 100 µM (inactive) | 44.7 µM (inactive) | > 100 µM (inactive) | > 100 µM (inactive) | > 100 µM (inactive) | > 100 µM (inactive) | > 100 µM (inactive) | > 100 µM (inactive) | > 100 µM (inactive) | > 100 µM (inactive) | > 100 µM (inactive) | > 100 µM (inactive) | 65.5 µM (inactive) | > 100 µM (inactive) | > 100 µM (inactive) | 91.4 µM (inactive) | > 100 µM (inactive) | > 100 µM (inactive) |
| COCOC1/C=C/CCCC#C[C@H](C)C(=O)CC1 (stereo not given in full) | 2.32 µM (inactive) | 12.2 µM (inactive) | 11.8 µM (inactive) | 4.4 µM (inactive) | 7.38 µM (inactive) | 11.2 µM (inactive) | 4.21 µM (inactive) | 10.4 µM (inactive) | 15.5 µM (inactive) | 19.5 µM (inactive) | 19.6 µM (inactive) | 8.07 µM (inactive) | 8.41 µM (inactive) | 15.8 µM (inactive) | 3.13 µM (inactive) | 14.6 µM (inactive) | 6.12 µM (inactive) | 5.7 µM (inactive) | 11.4 µM (inactive) | 14.2 µM (inactive) |
| CCCCCCCCCCCCCCCCCC(=O)OCC(COC(=O)CCCN)OC(=O)CCCN (stereo not given) | 54.2 µM (inactive) | 23.1 µM (inactive) | 19.7 µM (inactive) | 13.4 µM (inactive) | 15.9 µM (inactive) | 17.8 µM (inactive) | 17.3 µM (inactive) | 20.8 µM (inactive) | 19.2 µM (inactive) | 17.4 µM (inactive) | 20.6 µM (inactive) | 4.1 µM (inactive) | 15.1 µM (inactive) | 18.3 µM (inactive) | 28.8 µM (inactive) | 18.5 µM (inactive) | 19.3 µM (inactive) | 21 µM (inactive) | 19.9 µM (inactive) | > 100 µM (inactive) |
| CCCCc1ccc(Nc2nc(Cl)c3ccn(C4CC(Oc5ccc(C)cc5)C(COc5ccc(C)cc5)O4)c3n2)cc1 (stereo not given) | > 46.5 µM (inactive) | > 100 µM (inactive) | > 46.5 µM (inactive) | > 46.5 µM (inactive) | > 31.6 µM (inactive) | > 46.5 µM (inactive) | > 46.5 µM (inactive) | 28.6 µM (inactive) | > 100 µM (inactive) | > 100 µM (inactive) | > 46.5 µM (inactive) | > 46.5 µM (inactive) | > 46.5 µM (inactive) | > 46.5 µM (inactive) | > 46.5 µM (inactive) | > 46.5 µM (inactive) | > 100 µM (inactive) | 22.4 µM (inactive) | > 46.5 µM (inactive) | 25.2 µM (inactive) |
| CCCCc1ccc(Nc2nc(Cl)c3ncn(C4CC(Oc5ccc(C)cc5)C(COc5ccc(C)cc5)O4)c3n2)cc1 (stereo not given) | 89.9 µM (inactive) | > 100 µM (inactive) | > 100 µM (inactive) | 17.2 µM (inactive) | > 100 µM (inactive) | > 100 µM (inactive) | > 100 µM (inactive) | > 100 µM (inactive) | > 100 µM (inactive) | 75.2 µM (inactive) | > 100 µM (inactive) | > 100 µM (inactive) | > 100 µM (inactive) | > 100 µM (inactive) | > 100 µM (inactive) | 44.9 µM (inactive) | > 100 µM (inactive) | > 100 µM (inactive) | > 100 µM (inactive) | > 100 µM (inactive) |
| C=C(C)C(=O)O[C@H]1C[C@@]23O[C@@H]2CCC(=C[C@H]2OC(=O)C(=C)[C@H]12)COC3O (stereo not given in full) | 14.7 µM (inactive) | > 100 µM (inactive) | 44.6 µM (inactive) | 21.9 µM (inactive) | > 100 µM (inactive) | 49 µM (inactive) | 35.3 µM (inactive) | 49.2 µM (inactive) | > 100 µM (inactive) | > 100 µM (inactive) | > 100 µM (inactive) | > 100 µM (inactive) | 25.1 µM (inactive) | > 100 µM (inactive) | 17.2 µM (inactive) | 69.3 µM (inactive) | 49.5 µM (inactive) | 14.4 µM (inactive) | 49.2 µM (inactive) | 39.9 µM (inactive) |
| CN(C)c1cccc2c(S(=O)(=O)NCCN)cccc12 [DANSYL ETHYLENEDIAMINE] | 9.91 µM (inactive) | > 100 µM (inactive) | > 100 µM (inactive) | > 100 µM (inactive) | > 100 µM (inactive) | > 100 µM (inactive) | > 100 µM (inactive) | > 100 µM (inactive) | > 100 µM (inactive) | > 100 µM (inactive) | > 100 µM (inactive) | > 100 µM (inactive) | 41.1 µM (inactive) | > 100 µM (inactive) | > 100 µM (inactive) | 39.5 µM (inactive) | > 100 µM (inactive) | > 100 µM (inactive) | > 100 µM (inactive) | > 100 µM (inactive) |
| CO[C@@]12[C@H](COC(N)=O)C3=C(C(=O)C(C)=C(N)C3=O)N1C[C@H]1[C@@H]2N1C (stereo not given in full) [PORFIROMYCIN] | 0.34 µM (active) | 3.46 µM (inactive) | 29.4 µM (inactive) | 5.43 µM (inactive) | 10.2 µM (inactive) | 0.782 µM (active) | 8.57 µM (inactive) | 12.3 µM (inactive) | 16.6 µM (inactive) | 0.291 µM (active) | 8.69 µM (inactive) | 0.489 µM (active) | 6.31 µM (inactive) | 4.62 µM (inactive) | 0.993 µM (active) | 1.95 µM (inactive) | 6.76 µM (inactive) | 4.59 µM (inactive) | 12.5 µM (inactive) | 0.38 µM (active) |
